Reference: patent US20240307351A1, “AGENT FOR ANTI-AGING OR FOR CELLULAR REJUVENATION” (TOHOKU UNIVERSITY, priority 2022, published 2024)

Legend:
[1] = Liver function markers in blood of C57BL6 mice; type: in vivo, mouse; settings: C57BL6 mice (8 weeks old), oral, 50 or 150 mg/kg/day, 7 days, vs DMSO corn oil
Procedure: Compound #4 of DMSO corn oil was orally administered to C57BL6 mice (8 weeks old) at a dose of 50 mg/kg/day per kg of mouse weight for 7 days ([Group L]).
In addition, Compound #4 of DMSO corn oil was orally administered to C57BL6 mice (8 weeks old) at a dose of 150 mg/kg/day per kg of mouse weight for 7 days ([Group H]).
Further, DMSO corn oil was orally administered to C57BL6 mice (8 weeks old) for 7 days ([Control group]).

SIRTI protein = assay: Amount of SIRT1 protein in RH30 cells by Western blotting; type: cell-based, human; settings: 30 μM, 24 hours, compared with Control group (DMSO)
Procedure: RH30 cells (human rhabdomyosarcoma cell line; gli gene expression+, N-myc gene expression+) at 1×10^6 cell/dish were seeded and cultured in a dish containing 10 mL of a culture solution (low-glucose-containing DMEM medium (glucose concentration of 1.0 g/dL) to which 10 wt. % of FBS was added). One day later, Compound #5 was added to have a concentration of 30 μM, and the mixture was cultured for 24 hours ([Compound #5 addition group]). Compound #9, Compound #13, Compound #21, Compound #30, or Compound #35 as the present compound was added in place of Compound #5, and the mixture was cultured in the same manner, respectively, as [Compound #9 addition group], [Compound #13 addition group], [Compound #21 addition group], [Compound #30 addition group], and […].
On the other hand, as a control, DMSO (dimethyl sulfoxide) was added to have a concentration of 0.2 wt. %, and the mixture was cultured for 24 hours ([Control group]).
After completion of culture, the cells were recovered, disrupted by a typical method, and the amount of each of the proteins (SIRTI proteins, etc.) in the cells was detected by Western blotting. Further, the results of quantification of each band in the detection results of the Western blotting in FIG. 6 through normalization with the band of β-actin as a loading control are shown in FIG. 7.

Row | Structure (SMILES) | GOT in blood [1] | GPT in blood [1] | amount of SIRTI protein in cells (SIRTI protein)
1 | O=C(CC(C(=O)O)c1c[nH]c2ccccc12)c1ccc(F)cc1 (centres unmarked) [Compound #4] | decreased | decreased | 
2 | CC(=O)N1CCC(CC(C(=O)O)c2c[nH]c3ccccc23)CC1 (centres unmarked) [Compound #9] |  |  | increased
3 | CC(C)(C)OC(=O)NCCCCCCC(C)(C(=O)O)c1c[nH]c2ccccc12 (centres unmarked) [Compound #13] |  |  | increased
4 | CCCCCCn1cc(CC(=O)O)c2ccccc21 [Compound #30] |  |  | increased
